Where a SMILES comes first, the peptide text is derived from it. Bridges are numbered along the chain shown (N, C = ends). [ ]: non-standard residue; d: D form. Sec = N[C@@H](C[SeH])C(=O)O
What was measured:
[1] = target: rat α9α10 nAChR (Rattus norvegicus, UniProt P43144+Q9JLB5); assay: cell-based
[2] = target: α3β4 nAChR (Rattus norvegicus, UniProt P04757+P12392); settings: cited from earlier work
α3β4 nAChR, sequence (P04757 26-499 limits assumed): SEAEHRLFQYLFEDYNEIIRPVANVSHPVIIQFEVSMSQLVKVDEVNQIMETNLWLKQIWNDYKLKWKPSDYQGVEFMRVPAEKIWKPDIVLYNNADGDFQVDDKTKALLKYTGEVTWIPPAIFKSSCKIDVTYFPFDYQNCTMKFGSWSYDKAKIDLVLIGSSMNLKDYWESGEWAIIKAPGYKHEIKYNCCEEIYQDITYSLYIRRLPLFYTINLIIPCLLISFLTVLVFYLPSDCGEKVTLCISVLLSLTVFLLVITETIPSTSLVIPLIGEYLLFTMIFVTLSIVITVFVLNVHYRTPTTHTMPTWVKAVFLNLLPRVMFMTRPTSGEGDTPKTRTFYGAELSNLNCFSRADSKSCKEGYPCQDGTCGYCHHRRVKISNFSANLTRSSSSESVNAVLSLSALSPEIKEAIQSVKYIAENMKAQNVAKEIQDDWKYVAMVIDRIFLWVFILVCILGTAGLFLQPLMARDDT
α3β4 nAChR, sequence (P12392 21-495 limits assumed): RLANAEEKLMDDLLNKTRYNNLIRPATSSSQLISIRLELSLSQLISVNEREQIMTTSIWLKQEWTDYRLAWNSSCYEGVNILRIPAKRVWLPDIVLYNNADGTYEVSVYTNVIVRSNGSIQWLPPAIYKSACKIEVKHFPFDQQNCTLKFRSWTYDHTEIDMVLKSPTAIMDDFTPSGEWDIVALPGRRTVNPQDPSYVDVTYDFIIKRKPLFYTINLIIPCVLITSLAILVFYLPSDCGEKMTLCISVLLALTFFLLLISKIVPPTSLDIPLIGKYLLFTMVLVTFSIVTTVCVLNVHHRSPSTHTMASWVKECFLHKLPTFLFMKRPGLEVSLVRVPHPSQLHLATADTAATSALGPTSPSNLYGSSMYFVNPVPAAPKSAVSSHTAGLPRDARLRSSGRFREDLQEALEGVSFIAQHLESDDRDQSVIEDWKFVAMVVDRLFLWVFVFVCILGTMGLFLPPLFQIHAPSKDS

rat α9α10 nAChR, sequence (P43144 26-479 limits assumed): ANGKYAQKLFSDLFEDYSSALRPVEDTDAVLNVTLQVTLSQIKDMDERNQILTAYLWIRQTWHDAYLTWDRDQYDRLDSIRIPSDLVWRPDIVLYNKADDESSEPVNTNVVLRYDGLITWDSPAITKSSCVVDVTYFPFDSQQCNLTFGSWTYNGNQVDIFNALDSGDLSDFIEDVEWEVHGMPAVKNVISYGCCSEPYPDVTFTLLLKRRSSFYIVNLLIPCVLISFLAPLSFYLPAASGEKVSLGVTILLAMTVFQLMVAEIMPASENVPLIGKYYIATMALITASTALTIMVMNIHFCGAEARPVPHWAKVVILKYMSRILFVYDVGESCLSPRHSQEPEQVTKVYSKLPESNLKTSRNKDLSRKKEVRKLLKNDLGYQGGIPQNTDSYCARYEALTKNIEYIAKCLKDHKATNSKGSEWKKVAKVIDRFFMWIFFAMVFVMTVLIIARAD
rat α9α10 nAChR, sequence (Q9JLB5 25-447 limits assumed): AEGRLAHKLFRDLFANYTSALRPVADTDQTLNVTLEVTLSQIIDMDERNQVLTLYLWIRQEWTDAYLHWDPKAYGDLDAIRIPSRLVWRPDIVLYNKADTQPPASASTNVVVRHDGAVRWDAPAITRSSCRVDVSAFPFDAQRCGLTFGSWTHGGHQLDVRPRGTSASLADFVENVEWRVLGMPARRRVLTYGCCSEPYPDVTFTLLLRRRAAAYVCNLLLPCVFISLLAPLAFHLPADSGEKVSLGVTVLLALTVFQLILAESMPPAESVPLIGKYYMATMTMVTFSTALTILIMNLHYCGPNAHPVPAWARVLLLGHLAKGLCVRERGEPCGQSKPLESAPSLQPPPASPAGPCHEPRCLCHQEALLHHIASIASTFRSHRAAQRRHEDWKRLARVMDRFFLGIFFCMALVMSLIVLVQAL

Compound	% block [1]	IC50 [1]	IC50 [2]
N=C(N)NCCC[C@H](NC(=O)[C@@H]1C[Se][Se]C[C@@H]2NC(=O)[C@@H](NC(=O)CN)CSSC[C@H](NC(=O)[C@H](CCCNC(=N)N)NC(=O)[C@@H]3CCCN3C(=O)[C@H](CC(=O)O)NC(=O)[C@H](CO)NC2=O)C(=O)N[C@@H](CCCNC(=N)N)C(=O)N[C@@H](Cc2ccc(O)cc2)C(=O)N[C@@H](CCCNC(=N)N)C(=O)N1)C(=O)O [[C3 Sec;C12Sec] RgIA] (H-GC[Sec]SDPRCRYR[Sec]R-OH; disulfide 2-8; diselenide 3-12)	<10 nM (81.9 ± 1.8% block at 10 nM)	< 0.01 µM	–
α-conotoxin AuIB	–	–	3.1 ± 1 µM
